Paper PMC6160541 (Frontiers in Chemistry, 2018)

Columns and labels:
A549 = assay: MTT cytotoxicity assay, A549; type: cell-based, human; conditions: 48 h
Method: (§1) We evaluated the cytotoxicity of 1c-6c, 1d-7d and of the positive control 1a-5a against a panel of human cancer cells using MTT (3-(4,5-dimethylthiazol-2-yl)-2,5-diphenyltetrazolium bromide) assay. The IC50 values were calculated based on three parallel experiments.
(§2) Cisplatin and oxaliplatin were purchased from Yurui Chemical Co. Ltd. (Shanghai, China). All of the other chemicals were obtained from commercial suppliers, such as Alfa […]
(§3) IonSpec QFT mass spectrometer with ESI ionization. 3-(4,5-dimethylthiazol-2-yl) […]
(§4) Phosphate-buffered saline (PBS) contains 137 mM
(§5) NaCl, 2.7 mM KCl, 10 mM Na2HPO4 and 2 mM KH2PO4. Fetal bovine serum (FBS), 0.25% trypsin/EDTA solution, and penicillin-streptomycin solution were purchased from […]
(§6) Invitrogen (Grand Island, NY, USA). […]
(§7) HeLa (cervical carcinoma cell line), MCF-7 (breast gland adenocarcinoma), LNCaP and PC3 (prostatic cancer), HepG-2 (hepatocellular carcinoma), A549 and A549R (lung carcinoma) were used for the MTT […]
(§8) In Vitro Cellular Cytotoxicity Assays
(§9) Cells seeded in 96-well plates were incubated in a 5% CO2 atmosphere in 100 µL of complete medium at 37 ℃ for 24 h. Then, 100 µL of freshly prepared culture medium containing drugs at different concentrations was added and incubated for another 48 h.
(§10) MTT (5 mg/mL, 20 µL) was added and incubated for 3 h. Finally, the medium was removed, and DMSO (150 µL) was added. The absorbance was measured at 570 nm using a Bio-Rad 680 microplate reader. The IC50 values were calculated using GraphPad […]
(§11) Prism software. […]

[1] = parameters: method as in printed; conditions: comparison values, ref not given; cited from earlier work
MDCK cells = assay: MTT cytotoxicity with EDG, phloretin, Ctd. in MDCK cells; type: cell-based, canine; conditions: vs IC50 at 48 h
Excerpt: Finally, Madin-Darby canine kidney (MDCK) cells, which are widely used to establish the model of the intestinal epithelium and to evaluate the oral administration and screening of substrates and inhibitors in vitro, were used to find a prodrug with the enhanced potential for oral administration. […] (Figure 10).

PC3 = assay: MTT cytotoxicity assay, PC3; type: cell-based, human; conditions: 48 h
Method: as §1, §2, §3, §4, §5, §6, §7, §8, §9, §10, §11

MCF-7 = assay: MTT cytotoxicity assay, MCF-7; type: cell-based, human; conditions: 48 h
Method: as §1, §2, §3, §4, §5, §6, §7, §8, §9, §10, §11

A549R = assay: MTT cytotoxicity assay, A549R (cisplatin-resistant); type: cell-based, human
Method: as §1, §2, §3, §4, §5, §6, §7, §8, §9, §10, §11

HeLa = assay: MTT cytotoxicity assay, HeLa; type: cell-based, human; conditions: 48 h
Method: as §1, §2, §3, §4, §5, §6, §7, §8, §9, §10, §11

HepG-2 = assay: MTT cytotoxicity assay, HepG-2; type: cell-based, human; conditions: 48 h
Method: as §1, §2, §3, §4, §5, §6, §7, §8, §9, §10, §11

LNCaP = assay: MTT cytotoxicity assay, LNCaP; type: cell-based, human; conditions: 48 h
Method: as §1, §2, §3, §4, §5, §6, §7, §8, §9, §10, §11

CC(=O)[O][Pt]([NH2])([Cl])([Cl])([NH]C1CCCCC1)[O]C(C)=O [5a, satraplatin, reference compound]
IC50 (A549): 2.17 ± 1.68 µM | t1/2 in whole human blood [1]: 6.3 min | effect of EDG, phloretin, Ctd. and EDG + Ctd. on IC50 (MDCK cells): no great differences | IC50 (PC3): 16.8 ± 1.56 µM | IC50 (MCF-7): 8.01 ± 0.56 µM | RF: Resistance factor = IC50(A549R)/IC50(A549) (A549R): 4.59 | IC50 (A549R; MTT, 48 h): 9.96 ± 0.57 µM | IC50 (HeLa): 3.1 ± 0.89 µM | IC50 (HepG-2): 6.7 ± 1.89 µM | IC50 (LNCaP): 5.23 ± 1.77 µM
